The values below come from PubChem BioAssay AID1259407 (Chemical Carcinogenesis Research Information System (CCRIS), 2018).

The subject of the series is CCRIS mutagenicity, Ames/micronucleus/aberration tests. In words: CCRIS mutagenicity studies.
Where [1] appears, read: Test System: AMES SALMONELLA TYPHIMURIUM, Strain/Indicator: TA100, Metabolic Activation: NONE, Method: PREINCUBATION
Setting [2] is: Test System: AMES SALMONELLA TYPHIMURIUM, Strain/Indicator: TA100, Metabolic Activation: NONE, Method: STANDARD PLATE.
Setting [3] is: Test System: AMES SALMONELLA TYPHIMURIUM, Strain/Indicator: TA98, Metabolic Activation: NONE, Method: PREINCUBATION
[4] abbreviates: Test System: AMES SALMONELLA TYPHIMURIUM, Strain/Indicator: TA1535, Metabolic Activation: NONE, Method: PREINCUBATION

Activity calls are given as the source filed them. No rule for the calls is given here.

Regarding `NCCS`, the mutagenic call (End Point: IN VIVO MICRONUCLEUS, Test System: BONE MARROW POLYCHROMATIC ERYTHROCYTES, Species: MOUSE, Strain/Sex: SWISS/FEMALE, Route: IP) was “inactive; negative”; the mutagenic call under setting [1] was “inactive; negative”; the mutagenic call (Test System: Ames Salmonella typhimurium, Strain/Indicator: TA98, Metabolic Activation: None, Method: Preincubation) was “inactive; negative”; the mutagenic call (Test System: Ames Salmonella typhimurium, Strain/Indicator: TA98, Metabolic Activation: Rat, Liver, S9, Sodium phenobarbital and 5,6-benzoflavone (10%), Method: Preincubation) is “inactive; negative”; the mutagenic call (Test System: Ames Salmonella typhimurium, Strain/Indicator: TA100, Metabolic Activation: None, Method: Preincubation) was “inactive; negative”; the mutagenic call (Test System: Ames Salmonella typhimurium, Strain/Indicator: TA100, Metabolic Activation: Rat, Liver, S9, Sodium phenobarbital and 5,6-benzoflavone (10%), Method: Preincubation) was “inactive; negative”. The mutagenic call was “inactive; negative” (Test System: Ames Salmonella typhimurium, Strain/Indicator: TA1535, Metabolic Activation: None, Method: Preincubation); “inactive; negative” (Test System: Ames Salmonella typhimurium, Strain/Indicator: TA1535, Metabolic Activation: Rat, Liver, S9, Sodium phenobarbital and 5,6-benzoflavone (10%), Method: Preincubation); “inactive; negative” (Test System: Ames Salmonella typhimurium, Strain/Indicator: TA1537, Metabolic Activation: None, Method: Preincubation); “inactive; negative” (Test System: Ames Salmonella typhimurium, Strain/Indicator: TA1537, Metabolic Activation: Rat, Liver, S9, Sodium phenobarbital and 5,6-benzoflavone (10%), Method: Preincubation); “inactive; negative” (Test System: E. coli, Strain/Indicator: WP2uvrA/pKM101, Metabolic Activation: Rat, Liver, S9, Sodium phenobarbital and 5,6-benzoflavone (10%), Method: Preincubation).

Consider `Fc1ccc(CCl)cc1`, for which the mutagenic call under setting [2] was “inactive; negative”.

As for `CCCCCCC[CH2][Sn]([CH2]CCCCCCC)([S]CC(=O)OCCCCCC(C)C)[S]CC(=O)OCCCCCC(C)C`, the mutagenic call (Test System: AMES SALMONELLA TYPHIMURIUM, Strain/Indicator: TA97, Metabolic Activation: HAMSTER, LIVER, S-9, AROCLOR 1254 (10 OR 30%), Method: PREINCUBATION) is “inactive; negative”; the mutagenic call (Test System: AMES SALMONELLA TYPHIMURIUM, Strain/Indicator: TA97, Metabolic Activation: NONE, Method: PREINCUBATION) was “inactive; negative”; the mutagenic call (Test System: AMES SALMONELLA TYPHIMURIUM, Strain/Indicator: TA97, Metabolic Activation: RAT, LIVER, S-9, AROCLOR 1254 (10 OR 30%), Method: PREINCUBATION) is “inactive; negative”; the mutagenic call (Test System: AMES SALMONELLA TYPHIMURIUM, Strain/Indicator: TA98, Metabolic Activation: HAMSTER, LIVER, S-9, AROCLOR 1254 (10 OR 30%), Method: PREINCUBATION) is “inactive; negative”; the mutagenic call under setting [3] is “inactive; negative”; the mutagenic call (Test System: AMES SALMONELLA TYPHIMURIUM, Strain/Indicator: TA98, Metabolic Activation: RAT, LIVER, S-9, AROCLOR 1254 (10 OR 30%), Method: PREINCUBATION) was “inactive; negative”. For the same compound, the mutagenic call reads like this: (Test System: AMES SALMONELLA TYPHIMURIUM, Strain/Indicator: TA100, Metabolic Activation: HAMSTER, LIVER, S-9, AROCLOR 1254 (10 OR 30%), Method: PREINCUBATION) “inactive; negative”; under setting [1], “active; positive”; (Test System: AMES SALMONELLA TYPHIMURIUM, Strain/Indicator: TA100, Metabolic Activation: RAT, LIVER, S-9, AROCLOR 1254 (10 OR 30%), Method: PREINCUBATION) “inactive; negative”; (Test System: AMES SALMONELLA TYPHIMURIUM, Strain/Indicator: TA1535, Metabolic Activation: HAMSTER, LIVER, S-9, AROCLOR 1254 (10 OR 30%), Method: PREINCUBATION) “inactive; negative”; under setting [4], “inactive; negative”; (Test System: AMES SALMONELLA TYPHIMURIUM, Strain/Indicator: TA1535, Metabolic Activation: RAT, LIVER, S-9, AROCLOR 1254 (10 OR 30%), Method: PREINCUBATION) “inactive; negative”.

On to `CC\C=C/C=C\C=C/C=C\C=C/OCC(O)CO` (centres undefined), for which the mutagenic call (Test System: AMES SALMONELLA TYPHIMURIUM, Strain/Indicator: TA98, Metabolic Activation: NONE, Method: STANDARD PLATE) was “active; positive”; the mutagenic call under setting [2] is “active; positive”; the mutagenic call (Test System: AMES SALMONELLA TYPHIMURIUM, Strain/Indicator: TA104, Metabolic Activation: NONE, Method: STANDARD PLATE) was “active; positive”.

As for `Cc1ccc(NC(N)=O)cc1`, the mutagenic call by setting is: (Test System: AMES SALMONELLA TYPHIMURIUM, Strain/Indicator: TA98, Metabolic Activation: HAMSTER, LIVER, S-9, AROCLOR 1254 (10%), Method: PREINCUBATION) “inactive; negative”; under setting [3], “inactive; negative”; (Test System: AMES SALMONELLA TYPHIMURIUM, Strain/Indicator: TA98, Metabolic Activation: RAT, LIVER, S-9, AROCLOR 1254 (10%), Method: PREINCUBATION) “inactive; negative”; (Test System: AMES SALMONELLA TYPHIMURIUM, Strain/Indicator: TA100, Metabolic Activation: HAMSTER, LIVER, S-9, AROCLOR 1254 (10%), Method: PREINCUBATION) “inactive; negative”; under setting [1], “inactive; negative”; (Test System: AMES SALMONELLA TYPHIMURIUM, Strain/Indicator: TA100, Metabolic Activation: RAT, LIVER, S-9, AROCLOR 1254 (10%), Method: PREINCUBATION) “inactive; negative”. Moreover, the mutagenic call by setting is: (Test System: AMES SALMONELLA TYPHIMURIUM, Strain/Indicator: TA1535, Metabolic Activation: HAMSTER, LIVER, S-9, AROCLOR 1254 (10%), Method: PREINCUBATION) “inactive; negative”; under setting [4], “inactive; negative”; (Test System: AMES SALMONELLA TYPHIMURIUM, Strain/Indicator: TA1535, Metabolic Activation: RAT, LIVER, S-9, AROCLOR 1254 (10%), Method: PREINCUBATION) “inactive; negative”; (Test System: AMES SALMONELLA TYPHIMURIUM, Strain/Indicator: TA1537, Metabolic Activation: HAMSTER, LIVER, S-9, AROCLOR 1254 (10%), Method: PREINCUBATION) “inactive; negative”; (Test System: AMES SALMONELLA TYPHIMURIUM, Strain/Indicator: TA1537, Metabolic Activation: NONE, Method: PREINCUBATION) “inactive; negative”; (Test System: AMES SALMONELLA TYPHIMURIUM, Strain/Indicator: TA1537, Metabolic Activation: RAT, LIVER, S-9, AROCLOR 1254 (10%), Method: PREINCUBATION) “inactive; negative”.
